Assay results from patent US9284321B2, “Piperazino[1,2-a]indol-1-ones and [1,4]diazepino[1,2-a]indol-1-one” (Hoffmann-La Roche Inc., priority 2012, dated 2016).

What was measured:
[1] = system: human embryonic stem cell derived neural stem cells (NSCs); assay: Neural Stem Cell Proliferation Assay (neurogenesis assay, ATP levels by CellTiterGlo); format: cell-based; conditions: 96 h, compound concentration at which 150% activity of control (100%) is reached, NSC proliferation by ATP level after 4 days incubation, dose response 8 μM to 8 nM
Summary of the method: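 Human ESC-derived NSCs (dual SMAD inhibition) seeded 4 h before compounds, 11-point 2-fold series 8 μM–8 nM; 4 days at 37 °C, 5% CO2. ATP by CellTiterGlo luminescence as cell-number proxy, response as % of media control (0.25% DMSO); EC150 = concentration giving 150% of control.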

Row | Structure (SMILES) | EC (150% of control) [1] | melting point
1 | COc1ccc(-c2cc(C#N)cc3c(C)c4n(c23)CCNC4=O)cc1 [Example 247, 6-(4-Methoxyphenyl)-10-methyl-1-oxo-3,4-dihydro-2H-pyrazino[1,2-a]indole-8-carbonitrile] | 0.03 µM | 285 °C
2 | N#Cc1cc(-c2cc(F)c(F)c(F)c2)c2c(c1)cc1n2CCCNC1=O [Example 248, 1-Oxo-7-(3,4,5-trifluorophenyl)-2,3,4,5-tetrahydro-[1,4]diazepino[1,2-a]indole-9-carbonitrile] | 0.62 µM | 248.5 °C
3 | N#Cc1cc(-c2ccc(Cl)c(Cl)c2)c2c(c1)cc1n2CCCNC1=O [Example 249, 7-(3,4-Dichlorophenyl)-1-oxo-2,3,4,5-tetrahydro-[1,4]diazepino[1,2-a]indole-9-carbonitrile] | 0.31 µM | 217.5 °C
4 | Cc1c2n(c3c(-c4ccncc4)cc(C#N)cc13)CCCNC2=O [Example 250, 11-Methyl-1-oxo-7-pyridin-4-yl-2,3,4,5-tetrahydro-[1,4]diazepino[1,2-a]indole-9-carbonitrile] | 0.15 µM | 285 °C
5 | Cc1c2n(c3c(-c4ccc(N)nc4)cc(C#N)cc13)CCCNC2=O [Example 251, 7-(6-Aminopyridin-3-yl)-11-methyl-1-oxo-2,3,4,5-tetrahydro-[1,4]diazepino[1,2-a]indole-9-carbonitrile] | 0.29 µM | 306 °C
6 | N#Cc1cc(-c2ccc(Cl)c(F)c2)c2c(c1)cc1n2CCCNC1=O [Example 252, 7-(4-Chloro-3-fluorophenyl)-1-oxo-2,3,4,5-tetrahydro-[1,4]diazepino[1,2-a]indole-9-carbonitrile] | 1.38 µM | 221.5 °C
7 | Cc1ccc(-c2cc(C#N)cc3cc4n(c23)CCCNC4=O)cc1F [Example 253, 7-(3-Fluoro-4-methylphenyl)-1-oxo-2,3,4,5-tetrahydro-[1,4]diazepino[1,2-a]indole-9-carbonitrile] | 0.65 µM | 250.5 °C
8 | N#Cc1cc(-c2ccc(OC(F)(F)F)cc2)c2c(c1)cc1n2CCCNC1=O [Example 255, 1-Oxo-7-[4-(trifluoromethoxy)phenyl]-2,3,4,5-tetrahydro-[1,4]diazepino[1,2-a]indole-9-carbonitrile] | 0.3 µM | 230.5 °C
9 | CS(=O)(=O)c1ccc(-c2cc(C#N)cc3cc4n(c23)CCCNC4=O)cc1 [Example 256, 7-(4-Methylsulfonylphenyl)-1-oxo-2,3,4,5-tetrahydro-[1,4]diazepino[1,2-a]indole-9-carbonitrile] | 1.42 µM | 305.5 °C
10 | N#Cc1cc(-c2ccnc(Cl)c2)c2c(c1)cc1n2CCCNC1=O [Example 257, 7-(2-Chloropyridin-4-yl)-1-oxo-2,3,4,5-tetrahydro-[1,4]diazepino[1,2-a]indole-9-carbonitrile] | 0.54 µM | 286.5 °C
11 | Cc1ccc(-c2cc(C#N)cc3c(C)c4n(c23)CCNC4=O)cc1 [Example 258, 10-Methyl-6-(4-methylphenyl)-1-oxo-3,4-dihydro-2H-pyrazino[1,2-a]indole-8-carbonitrile] | 0.035 µM | 277 °C
12 | Cc1c2n(c3c(-c4cccc(F)c4)cc(C#N)cc13)CCNC2=O [Example 259, 6-(3-Fluorophenyl)-10-methyl-1-oxo-3,4-dihydro-2H-pyrazino[1,2-a]indole-8-carbonitrile] | 0.06 µM | 226 °C
13 | Cc1c2n(c3c(-c4ccc(Cl)c(Cl)c4)cc(C#N)cc13)CCNC2=O [Example 260, 6-(3,4-Dichlorophenyl)-10-methyl-1-oxo-3,4-dihydro-2H-pyrazino[1,2-a]indole-8-carbonitrile] | 0.12 µM | 245 °C
14 | Cc1c2n(c3c(-c4cc(F)cc(F)c4)cc(C#N)cc13)CCNC2=O [Example 261, 6-(3,5-Difluorophenyl)-10-methyl-1-oxo-3,4-dihydro-2H-pyrazino[1,2-a]indole-8-carbonitrile] | 0.091 µM | 303 °C
15 | COc1ccc(-c2cc(C#N)cc3c(C)c4n(c23)CCCNC4=O)cc1 [Example 262, 7-(4-Methoxyphenyl)-11-methyl-1-oxo-2,3,4,5-tetrahydro-[1,4]diazepino[1,2-a]indole-9-carbonitrile] | 0.029 µM | 277 °C
16 | N#Cc1cc(-c2ccc(CO)cc2)c2c(c1)cc1n2CCCNC1=O [Example 266, 7-[4-(Hydroxymethyl)phenyl]-1-oxo-2,3,4,5-tetrahydro-[1,4]diazepino[1,2-a]indole-9-carbonitrile] | 0.93 µM | 256.5 °C
17 | Cc1ccc(-c2cc(C#N)cc3c(C)c4n(c23)CCNC4=O)cc1F [Example 267, 6-(3-Fluoro-4-methylphenyl)-10-methyl-1-oxo-3,4-dihydro-2H-pyrazino[1,2-a]indole-8-carbonitrile] | 0.71 µM | 255 °C
18 | N#Cc1cccc(-c2cc(C#N)cc3cc4n(c23)CCCNC4=O)c1 [Example 269, 7-(3-Cyanophenyl)-1-oxo-2,3,4,5-tetrahydro-[1,4]diazepino[1,2-a]indole-9-carbonitrile] | 1.09 µM | 225.5 °C
19 | N#Cc1cc(-c2ccncc2)c2c(c1)cc1n2CCCNC1=O [Example 271, 1-Oxo-7-pyridin-4-yl-2,3,4,5-tetrahydro-[1,4]diazepino[1,2-a]indole-9-carbonitrile] | 0.65 µM | 278.5 °C
20 | N#Cc1cc(-c2ccccc2)c2c(c1)cc1n2CCCNC1=O [Example 274, 1-Oxo-7-phenyl-2,3,4,5-tetrahydro-[1,4]diazepino[1,2-a]indole-9-carbonitrile] | 1.1 µM | 237.5 °C
21 | COc1ccc(-c2cc(C#N)cc3cc4n(c23)CCCNC4=O)cc1 [Example 275, 7-(4-Methoxyphenyl)-1-oxo-2,3,4,5-tetrahydro-[1,4]diazepino[1,2-a]indole-9-carbonitrile] | 1.11 µM | 260.5 °C
22 | Cc1c2n(c3c(-c4ccc([N+](=O)[O-])cc4)cc(C#N)cc13)CCNC2=O [Example 276, 10-Methyl-6-(4-nitrophenyl)-1-oxo-3,4-dihydro-2H-pyrazino[1,2-a]indole-8-carbonitrile] | 0.11 µM | 312 °C
23 | Cc1c2n(c3c(-c4ccc(CO)cc4)cc(C#N)cc13)CCNC2=O [Example 277, 6-[4-(Hydroxymethyl)phenyl]-10-methyl-1-oxo-3,4-dihydro-2H-pyrazino[1,2-a]indole-8-carbonitrile] | 0.025 µM | 265 °C
24 | Cc1c2n(c3c(-c4ccc(Cl)nc4)cc(C#N)cc13)CCNC2=O [Example 278, 6-(6-Chloropyridin-3-yl)-10-methyl-1-oxo-3,4-dihydro-2H-pyrazino[1,2-a]indole-8-carbonitrile] | 0.44 µM | 318 °C
25 | Cc1c2n(c3c(-c4cccc(C#N)c4)cc(C#N)cc13)CCNC2=O [Example 279, 6-(3-Cyanophenyl)-10-methyl-1-oxo-3,4-dihydro-2H-pyrazino[1,2-a]indole-8-carbonitrile] | 0.31 µM | 266 °C
